Here are results for 2 compounds from patent US11365181B2, “P-phenylenediamine derivative as potassium channel regulator and preparation method and medical application thereof” (Shanghai Zhimeng Biopharma, Inc., priority 2018, dated 2022).

Series [1] in a line: Pharmacokinetic study of compound 03058 in male ICR mice. It is filed as in vivo. How it is done: Pharmacokinetic Study of Compound 03058
1) Research purpose: To obtain the pharmacokinetic characteristics of compound 03058 in male ICR mice
6 healthy male ICR mice (body weight range of 18-22 grams) were taken, divide them into 2 groups (3 mice/group, and 3 mice/time point), fasted for more than 12 hours (only oral administration group), and administered intravenously(0.05 mg/kg), orally (1 mg/kg), at time points of 0.083 (intravenous administration only), 0.25, 0.5, 1, 2, 4, 6 (only oral administration). After 8 and 24 h, blood were collected by cardiac puncture. At least 0.3 mL of whole blood was transferred to the EDTA-K2 anticoagulation tube, and within half an hour, the plasma was collected by centrifugation (6000 rpm, 8 minutes, 4° C.), and frozen at −20° C. for use. (Compound configuration: 5% DMAC+10% Solutol HS 15+85% Saline was used to prepare a solution having a concentration of iv 0.01 mg/mL and po 0.1 mg/mL).
Experimental results: According to the blood drug concentration data obtained, the non-compartmental model of WinNonlin® 7.0 software (Pharsight, USA) was used to calculate the pharmacokinetic parameters after administration.

The target of series [2] is KCNQ2 potassium channel (CHO-KCNQ2 cells) (Homo sapiens (Human), UniProt O43526). The series can be described thus: Activity test of potassium ion channel opener (FDSS/μCELL detection, FluxOR potassium ion channel assay). The conditions noted are these: for EC50: CHO-KCNQ2 cells, FluxOR fluorescence, FDSS/μCELL. It is filed as cell-based. How it is done: Activity Test of Potassium Ion Channel Opener (FDSS/ρCELL Detection)
Sequence of KCNQ2 potassium channel (CHO-KCNQ2 cells) (O43526 whole entry): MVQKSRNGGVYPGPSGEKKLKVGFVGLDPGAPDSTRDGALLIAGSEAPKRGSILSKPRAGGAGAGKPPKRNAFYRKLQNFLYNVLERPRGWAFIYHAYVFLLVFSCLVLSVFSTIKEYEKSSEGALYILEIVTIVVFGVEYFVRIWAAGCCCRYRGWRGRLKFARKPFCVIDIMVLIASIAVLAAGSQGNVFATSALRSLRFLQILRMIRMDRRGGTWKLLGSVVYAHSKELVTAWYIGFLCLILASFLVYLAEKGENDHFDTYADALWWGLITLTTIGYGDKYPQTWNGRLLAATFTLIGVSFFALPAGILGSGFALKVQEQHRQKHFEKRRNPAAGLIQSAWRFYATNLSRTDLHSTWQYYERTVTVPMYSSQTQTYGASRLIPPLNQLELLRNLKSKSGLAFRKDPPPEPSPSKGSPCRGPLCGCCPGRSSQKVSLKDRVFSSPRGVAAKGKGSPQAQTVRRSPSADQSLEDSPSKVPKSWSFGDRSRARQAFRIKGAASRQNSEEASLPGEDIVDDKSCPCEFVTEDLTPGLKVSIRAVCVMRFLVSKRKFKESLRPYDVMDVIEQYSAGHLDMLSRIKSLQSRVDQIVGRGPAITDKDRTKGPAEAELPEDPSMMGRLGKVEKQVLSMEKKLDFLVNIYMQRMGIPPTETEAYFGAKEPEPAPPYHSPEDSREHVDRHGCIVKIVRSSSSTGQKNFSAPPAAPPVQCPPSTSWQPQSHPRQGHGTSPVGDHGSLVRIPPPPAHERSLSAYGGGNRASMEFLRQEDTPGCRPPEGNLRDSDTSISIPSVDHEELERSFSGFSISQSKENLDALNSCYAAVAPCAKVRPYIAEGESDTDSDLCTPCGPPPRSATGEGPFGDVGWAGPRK
Cell preparation: CHO-KCNQ2 cells were cultured in a 175 cm^2 culture flask, and when the cells was grown to a density of 60-80%, the culture medium was removed, washed with 7 mL PBS (Phosphate Buffered Saline) once, then 3 mL 0.25% Trypsin was added to digest. After the digestion was completed, 7 mL culture medium (90% DMEM/F12+10% FBS+500 μg/mL G418) was added to neutralize, centrifugated for 3 minutes at 800 rpm. The supernatant was aspirated, then 5 mL culture medium was added to resuspend, and then the cells were counted.
Cell plating: The density to 3×10^4/well was adjusted according to the results of cell counting. After standing at room temperature for 30 minutes, the cells were placed in a 37° C. CO2 incubator and incubated overnight for 16-18 hours. The cell density reached about 80%.
Fluorescent dye incubation: The cell culture medium was discarded, 80 μL/well loading buffer was added, and the cells were incubated in dark at room temperature for 60 minutes.
Compound incubation: the loading buffer was discarded, 80 μL/well prepared compound solution was added, incubated at room temperature and in dark for 20 minutes.
Fluorescence data collection: FDSS/μCELL instrument for real-time fluorescence is used for signal recording, wherein excitation wavelength was 480 nm, emission wavelength was 540 nm, and signals were recorded 1 times per second, after baseline was recorded for 10 seconds, the addition of 20 μL/well stimulation buffer was started, and then the signal was continuously record until the end of 180 seconds.
loading buffer: 10 mL/plate, the preparation method was as follows:
Test buffer sample: 100 mL/plate, the preparation method was as follows:
Stimulation buffer: 5 mL/plate, the preparation method was as follows:
The above buffer was from a commercially available kit, the kit name was FluxOR potassium ion channel assay, the manufacturer's brand was Invitrogen, the article number was F10017, the lot number was 913728.
20 mM DMSO compound mother liquor was prepared, 10 μL of 20 mM compound mother liquor was took and added into 20 μL DMSO solution, serially diluted 3 times to 8 intermediate concentrations; then the middle concentration of the compound was took to the test buffer, 200 times dilution to get the final concentration to be tested, 80 μL was took and added to the test plate.
The highest test concentration was 100 μM, followed by […], 33.33, 11.11, 3.70, 1.23, 0.41, 0.137, 0.045 μM, total 8 concentrations. Each concentration 3 replicate holes.
This concentration of DMSO had no effect on the KCNQ2 potassium channel.
Experimental data was analyzed by Excel 2007 and GraphPad Prism 5.0 software, and the ratio of 180 seconds was calculated to calculate the excitement effect. The excitement effect of the compound is calculated by the following formula: […]
Environment: Temperature about 25° C.
Reagent: FluxOR™ Detection Kit (Invitrogen, Cat #[…])
The experimental data in the report might meet the following criteria: Z′ Factor>0.5
2. Determination Results: See Table 1 for Details, where the Smaller EC50 was, the Higher the Activity of the Corresponding Compound was.
References for the above test methods:
(2) Jinfeng Yue et al. Acta Pharmacologica Sinica, 2016, 37:105-110.

Series [3] is described as follows: Cerebral blood ratio of compound A in previous studies. It is filed as in vivo. The conditions noted are these: brain/blood. An excerpt:
It can be seen from the results in Table 4 that after oral administration of compounds 03043 and 03044 to male SD rats, they have a good cerebral blood ratio (1.0-2.4) at each time point.

Setting [4] is: mouse, Intravenous 0.05 mg/kg, plasma.
[5] abbreviates: mouse, po, Gavage 1 mg/kg, plasma.

As usually defined, the AUC(0-inf) is total exposure, with the tail of the curve extrapolated. A lower AUC(0-inf) goes with less exposure. The AUC(0-t) is exposure summed from dosing to a finite time, without extrapolation to infinity. Low values mean less exposure, high ones more exposure. What is called Cmax is the peak of the concentration-time curve. By half-life is commonly meant the time in which the quantity being followed falls by half. High values mean slow loss, low ones fast loss. By Tmax is commonly meant the time from dosing to the highest level. The EC50 is the midpoint of the concentration-response curve. A low value points to a more potent agent. In series [1] (Gavage 1 mg/kg), `Cc1cc(N2CCOc3cc(F)ccc3C2)cc(C)c1NC(=O)CC(C)(C)C` [Compound 03058, N-(4-(8-fluoro-2,3-dihydrobenzo[f][1,4]oxazepin-4(5H)-yl)-2,6-dimethylphenyl)-3,3-dimethylbutanamide] showed an F of 30.47%. For the same compound, in series [1] (setting [4]), the AUC(0-inf) worked out at 7.2 ng·h/mL, the AUC(0-t) was determined as 7.2 ng·h/mL, the Cmax was 15.1 ng/mL and the half-life is 43.8 min. Moreover, in series [1] (setting [5]), the total exposure AUC(0-inf) amounted to 43.6 ng·h/mL, the AUC(0-t) stood at 43.6 ng·h/mL, the maximum concentration (Cmax) is 17 ng/mL and the Tmax is 30 min. This compound also showed a half-life in series [1] (setting [5]) of 63 min. Besides, the “increase of activity versus 6-membered ring comparison compound (ratio of EC50)” value in series [2] (03043 vs compound A, 03058 vs compound B) stood at 12.25 times. The compound also gave an EC50 in series [2] of 8 nM.

As a reminder, the Kp is the ratio of the level in a tissue or fluid to that in plasma or blood. Regarding `Cc1cc(N2CCc3sc(Cl)cc3C2)cc(C)c1NC(=O)CC(C)(C)C` [Compound A], the EC50 in series [2] worked out at 65 nM. Moreover, the Kp at 2 h in series [3] (at 2 h) worked out at 0.56. In addition, in series [3] (at 4 h), the Kp at 4 h was determined as 0.46. For the same compound, the Kp in series [3] (overall) is roughly 0.5.
